What was measured:
[1] = Ocular D-DHA accretion and elimination (0.5% D-DHA diet 77 days, DHA wash-out 73 days); assay type: in vivo, C57BL/6J mice
Source text: To determine the pharmacokinetics of ocular D-DHA uptake, incorporation and elimination from the neural retina and RPE/choroid/sclera, twelve-week-old C57BL/6J mice were fed a 0.5% D-DHA containing diet (0.5 g D-DHA/100 g food, Table 3) for 77 days followed by an additional 73-day wash-out phase with DHA. At 4 weeks, >55% of the DHA in the retina was D-DHA rising to >60% at 5 weeks (FIG. 6A). At similar time points, D-DHA in the RPE/choroid/sclera was >80%. […] Based on the accretion and elimination data, two-month-old mice were fed with diets containing either D-DHA or natural DHA control for 1 week, 2 weeks, 3 weeks, and 4 weeks before the IVT injection of iron and saline control (FIG. 6B). In order to better approximate typical DHA doses in human prescription omega-3 supplements (e.g. 1,500 mg/day DHA in Lovaza), the D-DHA and DHA experimental mouse diets were adjusted to 0.25% instead of 0.5% for most of the study. On a 0.25% D-DHA diet, retinal D-DHA levels exceeded 50% at five weeks (52.2±1.5% and 55% of total DHA by our GC- and LC- based MS methods, respectively), regardless of whether eyes were injected with iron or control saline (Table 3).
Eleven-week-old C57BL/6J mice were purchased from Jackson Laboratory (Bar Harbor, ME) and housed in 20-25 lux light conditions under 12 h day/night cycle in the Dean McGee Eye Institute Animal Research Facility at the University of Oklahoma Health Sciences Center, Oklahoma City, OK. One week after acclimatization to the vivarium with ad libitum access to laboratory rodent chow and water the animals were assigned to experimental groups. To determine ocular D-DHA accretion, the mice were switched from the laboratory rodent diet to the experimental D-DHA supplemented diet containing 0.5% D-DHA plus 6.5% high oleic soybean oil (w/w) in AIN93G^51 (Research Diet, Inc. New Brunswick, NJ). The diets were vacuum packaged and stored at - 20° C. Food was replaced three times a week with fresh food ad libitum that is stored in 4° C. after it is taken from - 20° C. Based on previous estimated retina accretion kinetics, retina, optic nerve and eye cups containing sclera, retinal pigment epithelium-choroid (RPE-choroid) were dissected from 6 mice (3 females and 3 males) at different time points during eleven weeks of D-DHA feeding. The tissues were snap frozen in liquid nitrogen, and stored in -80° C. until fatty acid analyses. After eleven weeks (77 days) on D-DHA diet, the animals were switched to the washout diet containing 0.5% DHA plus 6.5% high oleic soybean oil (w/w) in AIN93G and maintained on this diet until euthanasia at three different time points up to 73 days, when tissues were harvested for fatty acid analysis. All animal procedures were approved by the University of Oklahoma Health Sciences Center Institutional Animal Care and Use Committee.
Three types of mass spectrometric analysis were performed to confirm repeatability of results. In the first, lipids were extracted from retinas by a modified Folch method (CHCl3/CH3OH, 2:1). derivatized to fatty acid methyl esters (FAME), and analyzed by high resolution capillary gas chromatography and specialized chemical ionization tandem mass spectrometry. Baseline resolved DHA and D-DHA total ion signal were integrated, and the proportions of D-DHA/total DHA were calculated. […] Lipids were extracted and saponified, and analyzed by ESI-LC/MS on a 4000 QTrap (Sciex) operating in enhanced negative mode over an m/z range of 320 - 345 and a scan rate of 250 /sec. […]

[2] = test system: neural retina mRNA levels; assay: Quantitative PCR of mRNA changes in the neural retina; assay type: in vivo, C57BL/6J mice; details: 1 week after injection
Protocol: Quantitative PCR was used to evaluate mRNA changes in the neural retinas of mice fed with D-DHA or DHA for 4 weeks. Cell-type specific, iron regulating, antioxidant, and inflammation related genes were evaluated at 1 week after iron or saline injections. The mRNA levels of the rod-specific gene rhodopsin (Rho), cone-specific gene cone opsin1 medium wave sensitive and short wave sensitive (Opn1mw and Opn1sw) were measured to assess the stress and differentiation of rod and cone photoreceptors. […] In contrast, there was no change in these mRNAs in the neural retinas of D-DHA/IVT iron mice relative to IVT saline controls (FIG. 9). The mRNA levels of transferrin receptor (Tfrc) which are inversely related to intracellular iron levels, can be used as an indicator of intracellular iron levels. […] These two groups had slightly different Tfrc levels, perhaps as a result of loss of some photoreceptors in the DHA/IVT iron group (FIG. 9). The mRNA levels of antioxidants solute carrier family 7 member 11 (SLC7A11), glutathione peroxidase 4 (GPX4), glutathione S-transferase isoform m1(GSTm1), glutathione synthesis (GSS), catalase (Cat), heme oxygenase 1 (Hmox1), and superoxide dismutase 1 (Sod1) were measured to investigate oxidative stress. […] The mRNA levels of IL1β, IL6 and cluster of differentiation 68 (Cd68) were detected to investigate the retinal inflammation. […] The mRNA levels of Glutathione-synthase (GSS) and IL6 were not increased by IVT iron in mice on either diet (FIG. 9).
Neural retina tissues were isolated as previously described (e.g., M Hadziahmetovic et al. Age-dependent retinal iron accumulation and degeneration in hepcidin knockout mice. Investigative ophthalmology & visual science. Jan. 5, 2011;52(1):109-18).Gene expression changes in the neural retina and purified RPE cells were evaluated. Gapdh was used as an endogenous control. […]

## [2H]C([2H])(/C=C\CC)/C=C\C([2H])([2H])/C=C\C([2H])([2H])/C=C\C([2H])([2H])/C=C\C([2H])([2H])/C=C\CCC(=O)OCC [D-DHA, 6,6,9,9,12,12,15,15,18,18-D10-(4Z,7Z,10Z,13Z,16Z, 19Z)-docosa 4,7,10,13,16, 19-hexaenoic acid ethyl ester]
[1]; 0.5% D-DHA diet, 4 weeks
  % of the DHA in the retina that was D-DHA: > 55%
[1]; 0.5% D-DHA diet, 5 weeks
  % of the DHA in the retina that was D-DHA: > 60%
[1]; 0.5% D-DHA diet, similar time points (4-5 weeks)
  D-DHA in the RPE/choroid/sclera: > 80%
[1]; DHA wash-out diet, compared with retina
  washout in the RPE/choroid/sclera: more rapid than retina
[1]; neural retina and RPE/choroid/sclera
  uptake and elimination kinetics: classic first order kinetics
[2]; D-DHA/IVT iron eyes
  upregulation of antioxidants mRNA (Slc7a11, Gpx4, GSTm1, Cat, Hmox1, Sod1): prevented
[2]; D-DHA/IVT iron relative to IVT saline controls
  mRNA levels of Rho, Opn1sw (photoreceptor genes): no change
[2]; D-DHA/IVT iron retinas
  mRNA levels of IL1β and Cd68: not increased
